How the values were obtained:
Inpp5e^Δ/Δ mice = assay: Oral Alisertib treatment of Inpp5e^Δ/Δ mice (Joubert Syndrome associated PKD model); type: in vivo, mouse
Experimental: (§1) Alisertib treatment was performed based on previously published protocols (Nikonova et al., (2014) PNAS 111:12859-12864; Nikonova (2015) Frontiers Oncol. 5:228), as follows: Starting at P9 Inpp5e^Δ/Δ and Inpp5e^Δ/Δ mice were treated once daily for 5 days with Alisertib delivered orally by pipette in a suspended solution with a final composition of 3.6 mg/ml Alisertib ([…], Selleck Chemicals) in 10% 2-hydroxypropyl-β-cyclodextrin ([…]-10ML, Sigma-Aldrich) with 1% (vol/vol) sodium bicarbonate ([…]-100ML, Sigma-Aldrich) and 5% glucose (49163-100ML, Sigma-Aldrich). Mice were dosed with a volume to deliver Alisertib at 10 mg/kg. Mouse body weights were recorded daily. Solutions were stored at 4 degrees for up to 1 month. […] Mice were then given 2 recovery days before being sacrificed at P15. This time frame was selected as it corresponded to an exponential rise in cyst number in Inpp5e^Δ/Δ mice. Aurka^Δ/Δ and Inpp5e^Δ/Δ; Aurka^Δ/Δ treatment groups were also included to determine the AURKA specificity of any phenotypes observed given Alisertib's broad drug targeting profile. Mice were culled via cervical dislocation or decapitation, as most appropriate for their age following ethical guidelines. Procedures were all conducted by ethically approved and trained personnel. Mice were measured for body weight, with ear tissue, urine and kidneys collected. Ear tissue and urine was stored at -20 degrees. Newborn and P4 kidneys were fixed whole in 4% PFA for 16 hrs at 4 degrees, while the kidney capsule membrane was removed from older mouse kidneys, with the kidney cut into halves and fixed in 10% NBF for 16 hrs at room temperature. Half the kidney samples were sent for histological processing and the other half were snap frozen and stored at -80 degrees until processed for RNA, alpha analysis and/or western blotting. Kidney tissues were paraffin imbedded and sectioned at 4 μm for most analysis with the exception of being sectioned at 10 μm for cilia analysis. Antigen retrieval was performed in Citrate buffer pH6 using Tefal pressure cooker or using a DAKO […] system as indicated. Antibody staining was performed as described elsewhere (Cottle et al., (2013) Cell reports, 3: 427-441), except triton x-100 was included in blocking buffers, and cover slips mounted using Prolong Gold (Invitrogen). Antibodies and stains are listed below. Imaging was using an Aperio brightfield and fluorescent scanners (MHP), Olympus Fluoview 500 (Biochemistry Imaging Suite), Nikon C2 or Leica SP8 confocal microscope (MMI). All quantifications with the exception of Nanostring analysis and Chi squared tests for analysis of mendelian ratios, were analyzed using the unpaired Student's t-test assuming unequal variance in Microsoft Excel and P≤0.05 values were considered significant. One or two tailed tests were selected as appropriate for hypothesis. Values presented are Mean±Standard Error of the Mean (S.E.M). 2K/BW % was calculated as the combined kidney weight over total body weight percentage. Albumin Creatinine Ratios (ACR) were calculated as μg Albumin over mg of Creatinine. Cyst identity was measured as a proportion of cyst epithelial area for each marker out of total sum of cyst epithelial areas of all markers (adjusted for marker co-localisation). Cystic index % is calculated as the proportion of cystic space occupied out of total kidney area in DBA-stained kidney longitudinal cross-sections. Cyst number reflects the average number of cysts counted per DBA-stained longitudinal kidney cross section. Cyst size is the average cross-sectional cyst size (mm^2) of cysts sampled from DBA-stained kidney longitudinal cross sections. Due to escape of Cre activity at the Aurka locus in cysts, unless otherwise indicated references to Inpp5e^Δ/Δ; Aurka^Δ/Δ immunostains and their quantifications reflect non-cystic regions throughout this study.

[1] = tested on: Inpp5e^Δ/Δ; Aurka^Δ/Δ mice; assay: Oral Alisertib treatment of Inpp5e^Δ/Δ; Aurka^Δ/Δ (double mutant) mice; type: in vivo, mouse
Experimental: as §1

mIMCD3 cells = assay: Western blots and densitometry of mIMCD3 cell lysates treated with Alisertib; type: cell-based, mouse
Experimental: mIMCD3 cells were grown as previously described (Plotnikova et al., (2015) J. Cell Sci. 128: 364-372). Using a hemocytometer, mIMCD3 cells were seeded in 6 well dishes at 1.3×10^5 cells per well in growth media and incubated overnight at 37° C. in 5% CO2. Lipofectamine 3000 Reagent kit (Invitrogen) was used for plasmid transfection according to manufacturer's protocol (3.75 μl of Lipofectamine 3000, 2.5 μg DNA and 5 μl of P3000 reagent in each well). siRNA transfections were also performed with Lipofectamine 3000 (Invitrogen) according to manufacturer's protocol (0.75 μl of Lipofectamine 3000, 25 pmol siRNA in each well). Plasmids included pCGN (HA-tag)^48, pCGN-HA-AURKA (gift from Olga Plotniknova), and pCGN-HA-AURKA KD (made in this study using Q5 Site-Directed Mutagenesis Kit NEB.E0554S according to manufacturer's protocol to contain the K162R variant described for pCDNA3.1-mRFP-AURKA K162R). All plasmids were prepared with Qiagen plasmid midiprep kits. siRNAs were All Stars negative control siRNA (S103650318, Qiagen) and Mm_Aurka_1 Flexitube siRNA (S100908803, Qiagen). Alisertib (10 mM in DMSO, S1133, SelleckChem) was added to media at 1 μM final concentration where indicated.
Following ˜16 hrs after plasmid and siRNA transfections, fresh growth media was placed on mIMCD3 cells and wells harvested up to 24 hrs later. Alternatively, for serum-starvation conditions, 0.5% serum containing was placed on mIMCD3 cells and wells harvested after 24 hrs. For serum-restimulation conditions mIMCD3 cells were first placed in 0.5% serum media for 24 hrs before addition of fresh growth media for up to 20 mins before harvest. For immunofluorescence experiments, mIMCD3 cells were grown on collagen I-coated 22×22 mm coverslips and processed as described in Cottle et al., (2007) J. Cell Sci. 120: 1423-1435 and Wiradjaja et al., (2013) Disease models & mechanisms, 6: 1426-1433).
Tissue extracts were prepared in AlphaLISA Surefire Ultra lysis buffer. Cell extracts were prepared in 1% Triton X-100 in Tris-buffered saline pH7.4 with Roche complete mini protease and PhosSTOP inhibitor tablets as described above. Immunoblotting was performed using standard techniques, with antibodies listed below. Densitometry values were determined using ImageJ software and occasional extreme outliers more than 2 standard deviations from the mean omitted.

[2] = Solubility of Alisertib in the oral dosing vehicle; type: physicochemical; settings: 3.6 mg/ml in 10% 2-hydroxypropyl-β-cyclodextrin, 1% sodium bicarbonate, 5% glucose
Experimental: Alisertib treatment was performed based on previously published protocols (Nikonova et al., (2014) PNAS 111:12859-12864; Nikonova (2015) Frontiers Oncol. 5:228), as follows: Starting at P9 Inpp5e^Δ/Δ and Inpp5e^Δ/Δ mice were treated once daily for 5 days with Alisertib delivered orally by pipette in a suspended solution with a final composition of 3.6 mg/ml Alisertib (S1133, Selleck Chemicals) in 10% 2-hydroxypropyl-β-cyclodextrin (H5784-10ML, Sigma-Aldrich) with 1% (vol/vol) sodium bicarbonate (S8761-100ML, Sigma-Aldrich) and 5% glucose (49163-100ML, Sigma-Aldrich). Mice were dosed with a volume to deliver Alisertib at 10 mg/kg. Mouse body weights were recorded daily. Solutions were stored at 4 degrees for up to 1 month. […] Mice were then given 2 recovery days before being sacrificed at P15. This time frame was selected as it corresponded to an exponential rise in cyst number in Inpp5e^Δ/Δ mice. Aurka^Δ/Δ and Inpp5e^Δ/Δ; Aurka^Δ/Δ treatment groups were also included to determine the AURKA specificity of any phenotypes observed given Alisertib's broad drug targeting profile.

[3] = tested on: adult mouse models of ADPKD; settings: cited from earlier work
[4] = Inpp5e^Δ/Δ mice, 10 mg/kg orally P9 to P13, P15, vs vehicle
[5] = double mutant mice, relative to vehicle controls
[6] = mice in which Aurka had been predominantly deleted, 10 mg/kg orally P9 to P13, P15
[7] = 1 μM Alisertib, 48 hrs, growth conditions

Compound: COc1cc(Nc2ncc3c(n2)-c2ccc(Cl)cc2C(c2c(F)cccc2OC)=NC3)ccc1C(=O)O [Alisertib]
- levels of nuclear localised active p53 in collecting duct cells (Inpp5e^Δ/Δ mice; 10 mg/kg orally once daily P9 to P13, tissue at P15): increased levels of nuclear localised active p53
- cilia number (% ciliated collecting duct cells) (Inpp5e^Δ/Δ mice; Inpp5e^Δ/Δ kidneys, vs vehicle): markedly reduced cilia number
- co-expression of high levels of AURKA and AKT pT308 in collecting duct cells (Inpp5e^Δ/Δ mice; Inpp5e^Δ/Δ kidneys, vs vehicle): increased co-expression of high levels of AURKA and AKT pT308
- cyst size (Inpp5e^Δ/Δ mice; [4]): reduced cyst size
- kidney to body weight ratio and kidney size (Inpp5e^Δ/Δ mice; [4]): marked reduction in kidney to body weight ratio and kidney size
- number of cysts (Inpp5e^Δ/Δ mice; [4]): increased in the number of cysts
- hair loss (Inpp5e^Δ/Δ mice; all Alisertib-treated mouse cohorts vs vehicle, 10 mg/kg orally once daily P9 to P13, tissue at P15): hair loss observed in all treated mouse cohorts
- cystic index % (Inpp5e^Δ/Δ mice; cystic genotypes Inpp5e^Δ/Δ and Inpp5e^Δ/Δ, Aurka^Δ/Δ, vs vehicle): no Alisertib-induced changes
- AKT pT308 expression [1, 5]: did not show reduced ciliation or AKT pT308 expression
- ciliation [1, 5]: did not show reduced ciliation
- cyst index [1, 6]: No change
- cyst number [1, 6]: No change
- cyst size [1, 6]: No change
- kidney to body weight ratio [1, 6]: No change
- AURKA protein level (mIMCD3 cells; 1 μM Alisertib, 48 hrs of exposure, growth conditions): two-fold increase in AURKA protein
- AKT phosphorylation at S473 (AKT pS473/total AKT expression ratio) (mIMCD3 cells; [7]): but not S473
- AKT phosphorylation at T308 (AKT pT308/total AKT expression ratio) (mIMCD3 cells; [7]): increasing AKT phosphorylation at T308
- total AKT (mIMCD3 cells; [7]): modestly reducing total AKT
- rebound increase of AKT T308 phosphorylation (mIMCD3 cells; 24 hrs of Alisertib exposure): not observed following 24 hrs of Alisertib exposure
- AURKA T288 phosphorylation ratio (mIMCD3 cells; Alisertib or vehicle for 48 hrs under growth conditions): reduces the AURKA T288 phosphorylation ratio
- solubility in dosing vehicle [2]: largely insoluble
- cystic disease [3]: exaggerates cystic disease

Reference: patent US20220372491A1, “TREATMENT OF RENAL CYSTIC DISEASE” (MONASH UNIVERSITY, priority 2019, published 2022)
